Legend:
[1] = tested on: double stranded polyriboadenylic acid (ds poly-A) (RNA, polymer) A; assay: absorption titration; conditions: 10 mM citrate-phosphate buffer, pH 4.5, 20°C; up to P/D 100 (301.09 µM ds poly-A, 3.05 µM ST)
[2] = tested on: single stranded polyriboadenylic acid (ss poly-A) (RNA, polymer) A; assay: fluorescence titration, Scatchard, McGhee-von Hippel fit; conditions: 10 mM Na+; 10 mM citrate-phosphate buffer, pH 7.0, 20°C; intrinsic constant, per nucleotide; per base
[3] = tested on: single stranded polyriboadenylic acid (ss poly-A) (RNA, polymer) A; assay: absorption titration, Scatchard, McGhee-von Hippel fit; conditions: 10 mM Na+; 10 mM citrate-phosphate buffer, pH 7.0, 20°C; intrinsic constant, per nucleotide; per base
[4] = tested on: double stranded polyriboadenylic acid (ds poly-A) (RNA, polymer) A; assay: circular dichroism; conditions: 10 mM citrate-phosphate buffer, pH 4.5, 20°C; 100.0 µM ds poly-A, up to 55.60 µM ST
[5] = tested on: double stranded polyriboadenylic acid (ds poly-A) (RNA, polymer) A; assay: thermal melting profile (CD); conditions: 10 mM citrate-phosphate buffer, pH 4.5; 100.0 µM ds poly-A, D/P 0.53; no change, transition around 74°C
[6] = tested on: double stranded polyriboadenylic acid (ds poly-A) (RNA, polymer) A; assay: fluorescence titration; conditions: 10 mM citrate-phosphate buffer, pH 4.5, 20°C; up to P/D 100 (510.50 µM ds poly-A, 5.0 µM ST)

binding [1]: no | K′ [2]: 6.15±0.20 × 10^5 M^-1 | K′ [3]: 5.98±0.20 × 10^5 M^-1 | binding [4]: no | binding [5]: no | binding [6]: no
SMILES: Cc1cc2nc3cc(C)c(N)cc3[n+](-c3ccccc3)c2cc1N

Reference: article PMC3912202 (2014)
